Results taken from ChEMBL document CHEMBL3865781, “Recent advances in the discovery and development of antibacterial agents targeting the cell-division protein FtsZ” (Bioorg Med Chem, 2016).
Values after ≈ are worked out from the molar mass of the structure shown.

Key:
Klebsiella pneumoniae = experiment: Antibacterial activity against Klebsiella pneumoniae ATCC BAA-1144 after 18 hrs by broth microdilution method; format: functional; conditions: ATCC BAA-1144, 18 h
Enterococcus faecalis [1] = experiment: Antimicrobial activity against vancomycin-sensitive Enterococcus faecalis after 18 hrs by broth microdilution method; format: functional
[2] = system: Mycobacterium tuberculosis; experiment: Antimycobacterial activity against Mycobacterium tuberculosis H37Rv after 2 weeks; format: functional; conditions: 336 h
Staphylococcus aureus [3] = experiment: Antibacterial activity against methicillin-sensitive Staphylococcus aureus after 18 hrs by broth microdilution method; format: functional
[4] = Inhibition of Escherichia coli FtsZ GTPase activity expressed in Escherichia coli BL21 preincubated for 5 mins followed by GTP addition after 15 mins by malachite green based spectrophotometric analysis
[5] = Inhibition of Escherichia coli FtsZ polymerization expressed in Escherichia coli BL21 assessed as reduction in light scattering intensity in presence of GTP by fluorescence spectrometric analysis
Staphylococcus aureus [6] = experiment: Antibacterial activity against methicillin-resistant Staphylococcus aureus ATCC BAA-41 after 18 hrs by broth microdilution method; format: functional; conditions: ATCC BAA-41, 18 h
Escherichia coli [7] = experiment: Antibacterial activity against Escherichia coli ATCC 25922 after 18 hrs by broth microdilution method; format: functional; conditions: ATCC 25922, 18 h
[8] = system: Mycobacterium tuberculosis; experiment: Antibacterial activity against Mycobacterium tuberculosis TN587 clinical isolates measured every 24 hrs for 7 days by MABA assay; format: functional
[9] = system: Mycobacterium tuberculosis; experiment: In vivo antibacterial activity against Mycobacterium tuberculosis H37Rv infected in GKO-TB mouse assessed as reduction in bacterial load in spleen at 50 mg/kg, ip or po bid for 10 consecutive days; format: functional
[10] = system: Mycobacterium tuberculosis; experiment: Antibacterial activity against Mycobacterium tuberculosis H37Rv measured every 24 hrs for 7 days by MABA assay; format: functional
[11] = system: Mycobacterium tuberculosis; experiment: In vivo antibacterial activity against Mycobacterium tuberculosis str. Erdman infected in C57BL/6 mouse assessed as reduction in bacterial load in lungs at 50 mg/kg, ip bid on day 5 to 14 post infection measured on day 15 post infection; format: functional, Erdman = ATCC 35801
[12] = system: Mycobacterium tuberculosis; experiment: Antibacterial activity against Mycobacterium tuberculosis NHN382 clinical isolates measured every 24 hrs for 7 days by MABA assay; format: functional
[13] = system: Mycobacterium tuberculosis; experiment: Antibacterial activity against Mycobacterium tuberculosis W210 clinical isolates measured every 24 hrs for 7 days by MABA assay; format: functional
[14] = system: Mycobacterium tuberculosis; experiment: Antibacterial activity against Mycobacterium tuberculosis NHN20 clinical isolates measured every 24 hrs for 7 days by MABA assay; format: functional
Bacillus subtilis [15] = experiment: Inhibition of Bacillus subtilis FtsZ GTPase activity expressed in Escherichia coli BL21(DE3) pLysS at 24 uM preincubated for 15 mins followed by GTP addition after 10 mins by malachite green ammonium molybdate assay relative to control
Bacillus subtilis [16] = experiment: Inhibition of Bacillus subtilis FtsZ polymerization expressed in Escherichia coli BL21(DE3) pLysS at 10 uM preincubated for 15 mins followed by GTP addition by spectrofluorometric analysis relative to control
Bacillus subtilis [17] = experiment: Inhibition of Bacillus subtilis FtsZ polymerization expressed in Escherichia coli BL21(DE3) pLysS at 2 uM preincubated for 15 mins followed by GTP addition by spectrofluorometric analysis relative to control
Bacillus subtilis [18] = experiment: Inhibition of Bacillus subtilis FtsZ polymerization expressed in Escherichia coli BL21(DE3) pLysS at 5 uM preincubated for 15 mins followed by GTP addition by spectrofluorometric analysis relative to control
Enterococcus faecalis [19] = experiment: Antimicrobial activity against vancomycin-resistant Enterococcus faecalis after 18 hrs by broth microdilution method; format: functional
Bacillus subtilis [20] = experiment: Antibacterial activity against Bacillus subtilis; format: functional
[21] = Toxicity in mouse infected with Staphylococcus aureus assessed as survival at 30 mg/kg, iv or po; format: organism-based; conditions: in vivo
Staphylococcus aureus [22] = experiment: Antibacterial activity against multi-drug resistant Staphylococcus aureus; format: functional
Staphylococcus aureus [23] = experiment: Antibacterial activity against methicillin-resistant Staphylococcus aureus; format: functional
[24] = Half life in iv dosed BALB/c mouse administered 1 hr after ABT addition by LC-MS/MS analysis; format: ADME, organism-based; conditions: in vivo
Escherichia coli [25] = experiment: Antibacterial activity against Escherichia coli K12 MG1655 after 4 hrs; format: functional; conditions: K-12 substr. MG1655, 4 h
Bacillus subtilis [26] = experiment: Antibacterial activity against Bacillus subtilis 168 harboring trpC2 after 4 hrs; format: functional; conditions: subsp. subtilis str. 168, 4 h
Escherichia coli [27] = experiment: Antibacterial activity against Escherichia coli ATCC 25922 after 18 hrs by broth microdilution assay; format: functional; conditions: ATCC 25922, 18 h
Staphylococcus aureus [28] = experiment: Antibacterial activity against Staphylococcus aureus ATCC 29213 after 18 hrs by broth microdilution assay; format: functional; conditions: ATCC 29213, 18 h
[29] = target: T1, Cell division protein FtsZ (Staphylococcus aureus, UniProt P0A031); experiment: Inhibition of Staphylococcus aureus ATCC 29213 N-terminal His6-tagged FtsZ GTPase activity expressed in Escherichia coli BL21(DE3) assessed as reduction in inorganic phosphate release preincubated for 10 mins followed by GTP addition after 30 mins
T1 sequence (P0A031 whole entry): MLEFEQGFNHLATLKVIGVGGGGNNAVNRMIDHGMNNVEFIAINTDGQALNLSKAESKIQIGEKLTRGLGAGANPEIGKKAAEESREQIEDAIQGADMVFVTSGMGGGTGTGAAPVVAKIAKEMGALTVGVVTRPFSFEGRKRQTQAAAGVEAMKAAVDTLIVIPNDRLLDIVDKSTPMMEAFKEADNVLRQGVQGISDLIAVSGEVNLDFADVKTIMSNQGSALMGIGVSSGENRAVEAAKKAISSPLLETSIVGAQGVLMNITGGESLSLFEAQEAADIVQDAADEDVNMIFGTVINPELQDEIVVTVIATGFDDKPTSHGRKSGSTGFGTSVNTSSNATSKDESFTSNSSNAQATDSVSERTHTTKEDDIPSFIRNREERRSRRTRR

[30] = target: T1, Cell division protein FtsZ; experiment: Inhibition of Staphylococcus aureus N-terminal His6-tagged FtsZ GTPase activity expressed in Escherichia coli BL21(DE3) preincubated for 10 mins followed by GTP addition after 30 mins by cytophos phosphate assay
[31] = target: T2, Cell division protein FtsZ (Escherichia coli K-12, UniProt P0A9A6); experiment: Inhibition of recombinant Escherichia coli K12 FtsZ assembly by light-scattering assay
T2 sequence (P0A9A6 whole entry): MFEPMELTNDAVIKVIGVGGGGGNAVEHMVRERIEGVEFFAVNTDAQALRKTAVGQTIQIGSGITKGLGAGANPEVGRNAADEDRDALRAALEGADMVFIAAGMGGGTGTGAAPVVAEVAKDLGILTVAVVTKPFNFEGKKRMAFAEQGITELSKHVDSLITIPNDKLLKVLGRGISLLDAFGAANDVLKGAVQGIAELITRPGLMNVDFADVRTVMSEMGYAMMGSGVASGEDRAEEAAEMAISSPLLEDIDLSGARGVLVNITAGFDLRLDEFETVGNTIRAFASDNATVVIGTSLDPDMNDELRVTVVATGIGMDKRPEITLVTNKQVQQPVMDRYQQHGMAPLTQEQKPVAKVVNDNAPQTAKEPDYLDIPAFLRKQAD

[32] = target: T2, Cell division protein FtsZ; experiment: Inhibition of recombinant Escherichia coli K12 FtsZ GTPase activity by malachite green sodium molybdate assay

COc1cc2ccc(=O)oc2cc1O [SCOPOLETIN]
MIC (Klebsiella pneumoniae): 32 to 128 µg/mL (≈ 167 to 666 µM)
MIC (Enterococcus faecalis [1]): 4 to 16 µg/mL (≈ 20.8 to 83.3 µM)
MIC [2]: 42 µg/mL (≈ 219 µM)
MIC (Staphylococcus aureus [3]): 2 to 8 µg/mL (≈ 10.4 to 41.6 µM)
IC50 [4]: 23 µM
IC50 [5]: 41 µM
MIC (Staphylococcus aureus [6]): 2 to 8 µg/mL (≈ 10.4 to 41.6 µM)
MIC (Escherichia coli [7]): 32 to 128 µg/mL (≈ 167 to 666 µM)

CN(C)c1cc2[nH]c(C3CCCCC3)nc2cc1NC(=O)c1ccc(C(F)(F)F)cc1F
MIC99 [8]: 0.24 µg/mL (≈ 0.535 µM)
Activity [9]: 3.9 - 5 log10CFU
MIC99 [10]: 0.18 µg/mL (≈ 0.401 µM)
Activity [11]: 5.7 - 6.3 log10CFU
MIC99 [12]: 0.16 µg/mL (≈ 0.357 µM)
MIC99 [13]: 0.31 µg/mL (≈ 0.691 µM)
MIC99 [14]: 0.16 µg/mL (≈ 0.357 µM)

CC1=CC(=O)c2c(O)cccc2C1=O [PLUMBAGIN]
MIC (Klebsiella pneumoniae): 32 to 128 µg/mL (≈ 170 to 680 µM)
MIC (Enterococcus faecalis [1]): 4 to 16 µg/mL (≈ 21.3 to 85 µM)
inhibition (Bacillus subtilis [15]): 58%
MIC (Staphylococcus aureus [3]): 2 to 8 µg/mL (≈ 10.6 to 42.5 µM)
inhibition (Bacillus subtilis [16]): 45%
inhibition (Bacillus subtilis [17]): 26%
inhibition (Bacillus subtilis [18]): 33%
MIC (Staphylococcus aureus [6]): 2 to 8 µg/mL (≈ 10.6 to 42.5 µM)
MIC (Escherichia coli [7]): 32 to 128 µg/mL (≈ 170 to 680 µM)
MIC (Enterococcus faecalis [19]): 4 to 16 µg/mL (≈ 21.3 to 85 µM)

CCCCOC(=O)Nc1cc2nc(C3CCCCC3)[nH]c2cc1N(C)C
MIC99 [8]: 0.13 µg/mL (≈ 0.363 µM)
MIC99 [10]: 0.06 µg/mL (≈ 0.167 µM)
MIC99 [12]: 0.06 µg/mL (≈ 0.167 µM)
MIC99 [13]: 0.06 µg/mL (≈ 0.167 µM)

NC(=O)c1c(F)ccc(OCc2nc3cc(Cl)cnc3s2)c1F
MIC (Bacillus subtilis [20]): 0.5 to 1 µg/mL
survival [21]: 100%
MIC (Staphylococcus aureus [22]): 0.5 to 1 µg/mL (≈ 1.41 to 2.81 µM)
MIC (Staphylococcus aureus [23]): 0.5 to 1 µg/mL (≈ 1.41 to 2.81 µM)
half-life [24]: 33.6 min

COc1cc(/C=C/C(=O)CC(=O)/C=C/c2ccc(O)c(OC)c2)ccc1O [CURCUMIN]
MIC (Klebsiella pneumoniae): 32 to 128 µg/mL (≈ 86.9 to 347 µM)
MIC (Enterococcus faecalis [1]): 4 to 16 µg/mL (≈ 10.9 to 43.4 µM)
IC50 (Escherichia coli [25]): 58 µM
MIC (Staphylococcus aureus [3]): 2 to 8 µg/mL (≈ 5.43 to 21.7 µM)
IC50 (Bacillus subtilis [26]): 17 µM
MIC (Staphylococcus aureus [6]): 2 to 8 µg/mL (≈ 5.43 to 21.7 µM)
MIC (Escherichia coli [7]): 32 to 128 µg/mL (≈ 86.9 to 347 µM)

CC(C)(C)c1ccc(-c2ncnc3c(CNC(=N)N)cccc23)cc1
MIC (Escherichia coli [27]): 897 µM (≈ 299 µg/mL)
MIC (Staphylococcus aureus [28]): 449 µM (≈ 150 µg/mL)
IC50 [29]: 317 µM

COc1ccc2cc3[n+](cc2c1OCCCOc1ccc(Cl)cc1)CCc1cc2c(cc1-3)OCO2.[Br-]
MIC (Klebsiella pneumoniae): 32 to 128 µg/mL
MIC (Enterococcus faecalis [1]): 4 to 16 µg/mL
MIC (Staphylococcus aureus [3]): 2 to 8 µg/mL
IC50 [30]: 66.6 µM
MIC (Staphylococcus aureus [6]): 2 to 8 µg/mL
MIC (Escherichia coli [7]): 32 to 128 µg/mL

COc1ccc2cc3[n+](cc2c1OC)CCc1cc2c(cc1-3)OCO2.[Cl-] [BERBERINE CHLORIDE]
MIC (Klebsiella pneumoniae): 32 to 128 µg/mL
MIC (Enterococcus faecalis [1]): 4 to 16 µg/mL
IC50 [31]: 10 µM
IC50 [32]: 16 µM
MIC (Staphylococcus aureus [3]): 2 to 8 µg/mL
MIC (Staphylococcus aureus [6]): 2 to 8 µg/mL
MIC (Escherichia coli [7]): 32 to 128 µg/mL

O=C(Oc1cc(OC(=O)c2ccc(O)c(Cl)c2)c2ccccc2c1)c1ccc(O)c(Cl)c1
MIC (Bacillus subtilis [20]): 13 µM

O=c1ccc2cc(CCO)c(O)cc2o1
MIC [2]: 60 µg/mL (≈ 291 µM)
